In ChEMBL document CHEMBL4811228, “Design, Synthesis, and Activity Evaluation of Novel Acyclic Nucleosides as Potential Anticancer Agents In Vitro and In Vivo” (J Med Chem, 2021):
The source made the active and inactive calls. No cut-off for these calls is given here.

How the values were obtained:
SW480 [1] = test: Induction of apoptosis in human SW480 cells assessed as necrotic cells at 32 uM incubated for 48 hrs by Annexin V-FITC/PI staining based flow cytometry (reference value: 2.9%); assay type: functional
SW480 [2] = test: Induction of apoptosis in human SW480 cells assessed as increase in p53 protein expression at 2 to 16 uM incubated for 48 hrs by western blot analysis; assay type: functional, cell-based; conditions: dose 2-16 µM
[3] = Acute toxicity in BALB/c mouse assessed as animal survival at 200 mg/kg, ip administered per 4 hrs for 4 times and measured everyday for 14 days (Rb =100%); assay type: organism-based; conditions: in vivo, time 14 day
SW480 [4] = test: Antitumor activity against human SW480 cells xenografted in ip dosed BALB/c mouse assessed as reduction in tumor weight administered every 2 days for 12 days; assay type: functional, organism-based; conditions: dose 25-50 mg/kg, time 12.0 day
HCT-116 [5] = test: Induction of apoptosis in human HCT-116 cells at 32 uM incubated for 48 hrs by Annexin V-FITC/PI staining based flow cytometry (reference value: 12%); assay type: functional
SW480 [6] = test: Antiproliferative activity against human SW480 cells assessed as reduction in cell viability incubated for 48 hrs by MTT assay; assay type: functional, cell-based; conditions: SW480, 48 h
[7] = Acute toxicity in BALB/c mouse assessed as animal survival at 150 mg/kg, ip administered per 4 hrs for 4 times and measured everyday for 14 days (Rb =100%); assay type: organism-based; conditions: in vivo, time 14 day
HCT-116 [8] = test: Inhibition of colony formation in human HCT-116 cells at >=16 uM incubated for 48 hrs followed by culture medium replenishment for every 72 hrs and measured after 14 days by crystal violet staining based analysis; assay type: functional; conditions: dose microM >=16; time 14 day
SW480 [9] = test: Inhibition of colony formation in human SW480 cells at 2 to 8 uM incubated for 48 hrs followed by culture medium replenishment for every 72 hrs and measured after 14 days by crystal violet staining based analysis; assay type: functional, cell-based; conditions: dose 2-8 µM, time 14.0 day
SW480 [10] = test: Induction of mitochondrial membrane potential loss in human SW480 cells assessed as cells with high MMP emitting red fluorescence at 2 uM incubated for 24 hrs by JC-1 staining based flow cytometry (reference value: 64.2%); assay type: functional
[11] = Acute toxicity in BALB/c mouse assessed as animal survival at 250 mg/kg, ip administered per 4 hrs for 4 times and measured everyday for 14 days (reference value: 100%); assay type: organism-based; conditions: in vivo, time 14 day
SW480 [12] = test: Induction of mitochondrial membrane potential loss in human SW480 cells assessed as cells with low MMP emitting green fluorescence at 8 uM incubated for 24 hrs by JC-1 staining based flow cytometry (reference value: 17.96%); assay type: functional
[13] = Acute toxicity in BALB/c mouse assessed as animal survival at 300 mg/kg, ip administered per 4 hrs for 4 times and measured everyday for 14 days (reference value: 100%); assay type: organism-based; conditions: in vivo, time 14 day
SW480 [14] = test: Antitumor activity against human SW480 cells xenografted in BALB/c mouse assessed as reduction in tumor necrosis at 25 to 50 mg/kg, ip administered every 2 days for 12 days by hematoxyin-eosin staining based analysis; assay type: functional, organism-based; conditions: dose 25-50 mg/kg, time 12.0 day
SW480 [15] = test: Induction of apoptosis in human SW480 cells assessed as early apoptotic cells at 8 uM incubated for 48 hrs by Annexin V-FITC/PI staining based flow cytometry (reference value: 1.87%); assay type: functional
SW480 [16] = test: Induction of apoptosis in human SW480 cells assessed as late apoptotic cells at 4 uM incubated for 48 hrs by Annexin V-FITC/PI staining based flow cytometry (reference value: 4.67%); assay type: functional
HCT-116 [17] = test: Inhibition of colony formation in human HCT-116 cells at 2 to 8 uM incubated for 48 hrs followed by culture medium replenishment for every 72 hrs and measured after 14 days by crystal violet staining based analysis; assay type: functional, cell-based; conditions: dose 2-8 µM, time 14.0 day
HCT-116 [18] = test: Induction of apoptosis in human HCT-116 cells incubated for 48 hrs by Annexin V-FITC/PI staining based flow cytometry; assay type: functional, cell-based; conditions: dose 2-32 µM
SW480 [19] = test: Induction of apoptosis in human SW480 cells assessed as late apoptotic cells at 2 uM incubated for 48 hrs by Annexin V-FITC/PI staining based flow cytometry (reference value: 4.67%); assay type: functional
SW480 [20] = test: Induction of apoptosis in human SW480 cells assessed as viable cells at 4 uM incubated for 48 hrs by Annexin V-FITC/PI staining based flow cytometry (reference value: 90.56%); assay type: functional; conditions: read-out: Activity
SW480 [21] = test: Induction of apoptosis in human SW480 cells assessed as viable cells at 16 uM incubated for 48 hrs by Annexin V-FITC/PI staining based flow cytometry (reference value: 90.56%); assay type: functional; conditions: read-out: Activity
SW480 [22] = test: Induction of apoptosis in human SW480 cells assessed as late apoptotic cells at 32 uM incubated for 48 hrs by Annexin V-FITC/PI staining based flow cytometry (reference value: 4.67%); assay type: functional
SW480 [23] = test: Induction of apoptosis in human SW480 cells assessed as necrotic cells at 16 uM incubated for 48 hrs by Annexin V-FITC/PI staining based flow cytometry (reference value: 2.9%); assay type: functional
SW480 [24] = test: Potency index, ratio of 5-FU IC50 to test compound IC50 for antiproliferative activity against human SW480 cells; assay type: functional
SW480 [25] = test: Induction of apoptosis in human SW480 cells assessed as increase in Bax protein expression at 2 to 16 uM incubated for 48 hrs by western blot analysis; assay type: functional, cell-based; conditions: dose 2-16 µM
SW480 [26] = test: Induction of apoptosis in human SW480 cells assessed as reduction in Bcl-xl protein expression at 2 to 16 uM incubated for 48 hrs by western blot analysis; assay type: functional, cell-based; conditions: dose 2-16 µM
SW480 [27] = test: Induction of mitochondrial membrane potential loss in human SW480 cells assessed as cells with high MMP emitting red fluorescence at 4 uM incubated for 24 hrs by JC-1 staining based flow cytometry (reference value: 64.2%); assay type: functional
SW480 [28] = test: Induction of mitochondrial membrane potential loss in human SW480 cells assessed as cells with low MMP emitting green fluorescence at 2 uM incubated for 24 hrs by JC-1 staining based flow cytometry (reference value: 17.96%); assay type: functional
SW480 [29] = test: Induction of mitochondrial membrane potential loss in human SW480 cells assessed as increase in cells with low MMP emitting green fluorescence at 2 to 8 uM incubated for 24 hrs by JC-1 staining based fluorescence microscopy; assay type: functional, cell-based; conditions: dose 2-8 µM
[30] = Half life in human liver microsomes at 0.1 uM preincubated for 10 mins followed by NADPH addition and measured up to 60 mins by LC-MS/MS analysis; assay type: ADME, Microsome; conditions: time 70 min
SW480 [31] = test: Induction of mitochondrial membrane potential loss in human SW480 cells assessed as cells with high MMP emitting red fluorescence at 8 uM incubated for 24 hrs by JC-1 staining based flow cytometry (reference value: 64.2%); assay type: functional
HCT-116 [32] = test: Antiproliferative activity against human HCT-116 cells assessed as reduction in cell viability incubated for 48 hrs by MTT assay; assay type: functional, cell-based; conditions: HCT-116, 48 h
HCT-116 [33] = test: Induction of cell cycle arrest in human HCT-116 cells assessed as accumulation at G0/G1 phase at 16 uM incubated for 24 hrs by propidium iodide staining based flow cytometry; assay type: functional
[34] = Acute toxicity in BALB/c mouse assessed as animal survival at 100 mg/kg, ip administered per 4 hrs for 4 times and measured everyday for 14 days (Rb =100%); assay type: organism-based; conditions: in vivo, time 14 day

CCCCCCCCCC(CCO)n1cnc2c(Cl)ncnc21 (racemic)
Activity (SW480 [1]): 3.89%
Activity (SW480 [2]): Active
survival at 336 h [3]: 70%
Activity (SW480 [4]): Dose-Dependent Effect
Activity (HCT-116 [5]): 66%
IC50 (SW480 [6]): 1150 nM
survival at 336 h [7]: 100%
inhibition (INH) (HCT-116 [8]): 100%
inhibition (SW480 [9]): Active
Activity (SW480 [10]): 47.58%
survival at 336 h [11]: 20%
Activity (SW480 [12]): 36.6%
survival at 336 h [13]: 0%
Activity (SW480 [14]): Active
Activity (SW480 [15]): 11.03%
Activity (SW480 [16]): 9.11%
inhibition (HCT-116 [17]): Active
Activity (HCT-116 [18]): Dose-Dependent Effect
Activity (SW480 [19]): 11.69%
viability at 4 µM (SW480 [20]): 71.5%
viability at 16 µM (SW480 [21]): 44%
Activity (SW480 [22]): 13.76%
Activity (SW480 [23]): 11.01%
Ratio IC50 (SW480 [24]): 10
Activity (SW480 [25]): Active
Activity (SW480 [26]): Active
Activity (SW480 [27]): 33.67%
Activity (SW480 [28]): 28.88%
Activity (SW480 [29]): Active
half-life at 0.1 µM [30]: 10.8 min
Activity (SW480 [31]): 31.56%
IC50 (HCT-116 [32]): 890 nM
Activity (HCT-116 [33]): Active
survival at 336 h [34]: 100%
